Results published in patent publication US11208415B2, “Substituted indole Mcl-1 inhibitors” (Vanderbilt University, priority 2014, dated 2021).
pKi: −log10 of the molar value.

Target: recombinant Mcl-1 (residues 172-327) (Homo sapiens (Human), UniProt Q07820)
Test: Fluorescence polarization anisotropy competition assay (FITC-Bak or FITC-Bim BH3 peptide), Mcl-1
Assay type: binding
Conditions: FITC-labeled BH3 peptide (Bak or Bim) displacement; Ki converted from IC50; printed as range bins; read-out: Ki for Inhibition of Mcl-1

Chain of recombinant Mcl-1 (residues 172-327) (Q07820 172-327): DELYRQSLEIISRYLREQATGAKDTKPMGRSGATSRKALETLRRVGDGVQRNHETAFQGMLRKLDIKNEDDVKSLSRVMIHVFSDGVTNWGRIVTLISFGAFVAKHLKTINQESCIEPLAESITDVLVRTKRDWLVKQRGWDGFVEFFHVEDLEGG

pKi: > 7.30
SMILES: Cc1cc(OCCCc2c3n(c4c(-c5c(C)nn(C)c5C)c(Cl)ccc24)CCCN(c2cc(C(=O)O)c4cn(C)nc4c2)C3=O)cc(C)c1Cl [Example I-366, 6-(8-chloro-1-(3-(4-chloro-3,5-dimethylphenoxy)propyl)-1-oxo-7-(1,3,5-trimethyl-1H-pyrazol-4-yl)-4,5-dihydro-1H-[1,4]diazepino[1,2-a]indol-2(3H)-yl)-2-methyl-2H-indazole-4-carboxylic acid]
